Data set [1] relates to bronchoconstrictor response induced by leukotriene D4. The experiment in a line: Inhibition test of bronchoconstriction in guinea pig. Also on record: unit not given here. In kind it is in vivo. The conditions noted are these: 2 hours before i.v. leukotriene D4 (3 μg/kg), anesthetized male Hartley guinea pig. On the procedure: Male Hartley guinea pig weighing about 450 g was anesthetized with sodium pentobarbital (30 mg/kg,i.p.), and the changes in transpulmonary pressure was measured according to the modified method of Konzett-Rössler (J. Harvey et al., J. Pharmacol. Method. 9, 147-155, 1983). Bronchoconstrictor response was induced by injection of leukotriene D4 (3 μg/kg) into left jugular vein. Further, indomethacin and propranolol were injected into vein of the animal, prior to the injection of leukotriene D4. Test compounds suspended in 5% solution of Gum Arabic were administered orally 2 hours before the injection of leukotriene D4.

In general, melting point refers to the temperature, or range, at which the solid turns liquid.

For `CCCc1c(SCCCOc2ccc(C(C)=O)c(OCCCC(=O)OCC)c2CCC)ccc(C(C)=O)c1O` [Example 1, Ethyl 4-[6-acetyl-3-[3-(4-acetyl-3-hydroxy-2-propylphenylthio)propoxy]-2-propylphenoxy]butyrate], the melting point was in the range of 65 to 66 °C.
On the same count and under the same terms, the same measure for `CCCc1c(OCCCSc2ccc(C(C)=O)c(OCCCC(=O)OCC)c2CCC)ccc(C(C)=O)c1O` [Example 23, Ethyl 4-[6-acetyl-3-[3-(4-acetyl-3-hydroxy-2-propyl-phenoxy)propylthio]-2-propylphenoxy]butyrate]: 87 to 88 °C; for `CCCc1c([S+]([O-])CCCOc2ccc(C(C)=O)c(OCCCC(=O)OCC)c2CCC)ccc(C(C)=O)c1O` (stereo not drawn) [Example 31, Ethyl 4-[6-acetyl-3-[3-(4-acetyl-3-hydroxy-2-propyl-phenylsulfinyl)propoxy]-2-propylphenoxy]butyrate]: 74 to 76 °C.
`CCCc1c(S(=O)(=O)CCCOc2ccc(C(C)=O)c(OCCCC(=O)OCC)c2CCC)ccc(C(C)=O)c1O` [Example 32, Ethyl 4-[6-acetyl-3-[3-(4-acetyl-3-hydroxy-2-propyl-phenylsulfonyl)propoxy]-2-propylphenoxy]butyrate] displayed a melting point of 77 to 79 °C.
For the compound `CCCc1c(SCCCOc2ccc(C(C)=O)c(OCCCC(=O)O)c2CCC)ccc(C(C)=O)c1O` [Example 33, 4-[6-Acetyl-3-[3-(4-acetyl-3-hydroxy-2-propyl-phenylthio)propoxy]-2-propylphenoxy]butyric acid], the Inhibition in data set [1] (dose 3.125 mg/kg p.o.) came to 28.0; in data set [1] (dose 6.25 mg/kg p.o.) it was 40.2; in data set [1] (dose 12.5 mg/kg p.o.), 63.9; in data set [1] (dose 50 mg/kg p.o.), 94.8.
With `CCCc1c(SCCCOc2ccc(C(C)=O)c(OCCCCCC(=O)O)c2CCC)ccc(C(C)=O)c1O` [Example 35], the Inhibition in data set [1] (dose 6.25 mg/kg p.o.) was found to be 10.7; in data set [1] (dose 12.5 mg/kg p.o.), 51.3; in data set [1] (dose 50 mg/kg p.o.), 92.4.
As for `CCCc1c(SCCCSc2ccc(C(C)=O)c(OCCCC(=O)O)c2CCC)ccc(C(C)=O)c1O` [Example 45], the Inhibition in data set [1] (dose 1.56 mg/kg p.o.) was determined as 22.4; in data set [1] (dose 3.125 mg/kg p.o.), 54.2; in data set [1] (dose 6.25 mg/kg p.o.), 71.3; in data set [1] (dose 12.5 mg/kg p.o.), 72.7; in data set [1] (dose 50 mg/kg p.o.) it was 96.2.
In the case of `CCCc1c(SCCCSc2ccc(C(C)=O)c(OCCCCC(=O)O)c2CCC)ccc(C(C)=O)c1O` [Example 46], the Inhibition in data set [1] (dose 3.125 mg/kg p.o.) was determined as 38.5; in data set [1] (dose 6.25 mg/kg p.o.), 46.6; in data set [1] (dose 12.5 mg/kg p.o.), 37.5; in data set [1] (dose 50 mg/kg p.o.), 94.2.
As to `CCCc1c(SCCCSc2ccc(C(C)=O)c(OCCCCCC(=O)O)c2CCC)ccc(C(C)=O)c1O` [Example 47], the Inhibition in data set [1] (dose 3.125 mg/kg p.o.) worked out at 29.1; in data set [1] (dose 12.5 mg/kg p.o.), 72.5; in data set [1] (dose 50 mg/kg p.o.), 92.9.
Take `CCCc1c(SCCCSc2ccc(C(C)=O)c(OCCCCCCC(=O)O)c2CCC)ccc(C(C)=O)c1O` [Example 48]: the Inhibition was found to be 33.6 in data set [1] (dose 3.125 mg/kg p.o.), 79.7 in data set [1] (dose 12.5 mg/kg p.o.) and 90.7 in data set [1] (dose 50 mg/kg p.o.).
Consider `CCCc1c(SCCCSc2ccc(C(C)=O)c(OCCCCCCCCC(=O)O)c2CCC)ccc(C(C)=O)c1O` [Example 49], for which the figures for the Inhibition in data set [1] (dose 6.25 mg/kg p.o.), in data set [1] (dose 12.5 mg/kg p.o.) and in data set [1] (dose 50 mg/kg p.o.) were 19.1, 58.9 and 77.7, respectively.
As for `CCCc1c(OCCCSc2ccc(C(C)=O)c(OCCCC(=O)O)c2CCC)ccc(C(C)=O)c1O` [Example 53], the Inhibition in data set [1] (dose 3.125 mg/kg p.o.) came to 15.2; in data set [1] (dose 6.25 mg/kg p.o.) it was 50.4; in data set [1] (dose 12.5 mg/kg p.o.) it was 60.4; in data set [1] (dose 50 mg/kg p.o.), 66.7.
Turning to `CCCc1c(OCCCSc2ccc(C(C)=O)c(OCCCCCC(=O)O)c2CCC)ccc(C(C)=O)c1O` [Example 55], the Inhibition is given as 36.4 in data set [1] (dose 6.25 mg/kg p.o.), 45.0 in data set [1] (dose 12.5 mg/kg p.o.) and 88.0 in data set [1] (dose 50 mg/kg p.o.).

The record behind these values is patent publication USRE38921E1, “Phenoxyalkylcarboxylic acid derivatives and process for their preparations” (Kyorin Pharmaceutical Co., Ltd., priority 1988, dated 2005).
